The results in this text go back to ChEMBL document CHEMBL4507319 (2021).

In experiment [1] the target is Cyclin-dependent kinase 4 (Homo sapiens) (UniProt P11802). The conditions noted are these: Compound concentration 1000.0 nM.
For experiment [2], the target named is Casein kinase I isoform alpha-like (Homo sapiens) (UniProt Q8N752). The conditions noted are these: Compound concentration 1000.0 nM.
Experiment [3] deals with Serine/threonine-protein kinase DCLK1 (Homo sapiens) (UniProt O15075). The note with it: Compound concentration 1000.0 nM.
Experiment [4] deals with Ephrin type-A receptor 4 (Homo sapiens) (UniProt P54764). The note with it: Compound concentration 1000.0 nM.
Experiment [5] concerns the target Fibroblast growth factor receptor 3 (Homo sapiens) (UniProt P22607). The note with it: Compound concentration 1000.0 nM.
Experiment [6] concerns the target Tyrosine-protein kinase Fgr (Homo sapiens) (UniProt P09769). The conditions noted are these: Compound concentration 1000.0 nM.
Experiment [7] deals with Receptor-type tyrosine-protein kinase FLT3 (Homo sapiens), P36888 [D835V]. The conditions noted are these: Compound concentration 1000.0 nM.
Experiment [8] concerns Receptor-type tyrosine-protein kinase FLT3 (Homo sapiens), P36888 [UNDEFINED MUTATION]. The conditions noted are these: Compound concentration 1000.0 nM.
Experiment [9] deals with Receptor-type tyrosine-protein kinase FLT3 (Homo sapiens), P36888 [K663Q]. The note with it: Compound concentration 1000.0 nM.
The target in experiment [10] is G protein-coupled receptor kinase 4 (Homo sapiens) (UniProt P32298). The conditions noted are these: Compound concentration 1000.0 nM.
Sequence of G protein-coupled receptor kinase 4 (Homo sapiens) (P32298 whole entry, looked up): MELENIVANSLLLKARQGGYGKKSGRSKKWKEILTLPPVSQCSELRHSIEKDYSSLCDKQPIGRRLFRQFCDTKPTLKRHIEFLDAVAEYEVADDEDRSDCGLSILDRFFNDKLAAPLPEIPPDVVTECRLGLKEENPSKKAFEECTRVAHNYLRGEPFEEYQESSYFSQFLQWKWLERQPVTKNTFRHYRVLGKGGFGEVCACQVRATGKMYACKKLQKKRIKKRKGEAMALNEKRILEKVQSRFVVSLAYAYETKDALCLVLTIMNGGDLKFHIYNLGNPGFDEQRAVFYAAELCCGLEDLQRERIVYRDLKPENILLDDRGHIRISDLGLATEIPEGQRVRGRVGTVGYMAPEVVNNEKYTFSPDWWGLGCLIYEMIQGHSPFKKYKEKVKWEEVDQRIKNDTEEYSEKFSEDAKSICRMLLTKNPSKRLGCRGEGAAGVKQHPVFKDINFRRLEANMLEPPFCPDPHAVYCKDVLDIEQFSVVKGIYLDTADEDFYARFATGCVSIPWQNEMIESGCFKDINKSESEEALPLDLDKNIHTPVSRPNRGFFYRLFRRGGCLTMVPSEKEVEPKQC
The target in experiment [11] is Myosin light chain kinase family member 4 (Homo sapiens) (UniProt Q86YV6). The note with it: Compound concentration 1000.0 nM.
Sequence of Myosin light chain kinase family member 4 (Homo sapiens) (Q86YV6 whole entry): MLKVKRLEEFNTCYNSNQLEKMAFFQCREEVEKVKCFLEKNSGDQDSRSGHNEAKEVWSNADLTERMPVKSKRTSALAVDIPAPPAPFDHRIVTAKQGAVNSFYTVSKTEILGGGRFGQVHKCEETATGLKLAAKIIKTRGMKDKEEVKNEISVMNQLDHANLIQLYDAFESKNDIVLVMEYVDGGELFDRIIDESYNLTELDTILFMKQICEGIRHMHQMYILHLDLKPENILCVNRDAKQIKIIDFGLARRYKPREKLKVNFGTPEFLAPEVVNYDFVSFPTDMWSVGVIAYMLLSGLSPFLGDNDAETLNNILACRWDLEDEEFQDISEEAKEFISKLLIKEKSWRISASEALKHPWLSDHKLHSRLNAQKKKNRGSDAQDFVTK
The target of experiment [12] is T1, Mitogen-activated protein kinase 13 (Homo sapiens) (UniProt O15264).
T1 sequence (whole entry): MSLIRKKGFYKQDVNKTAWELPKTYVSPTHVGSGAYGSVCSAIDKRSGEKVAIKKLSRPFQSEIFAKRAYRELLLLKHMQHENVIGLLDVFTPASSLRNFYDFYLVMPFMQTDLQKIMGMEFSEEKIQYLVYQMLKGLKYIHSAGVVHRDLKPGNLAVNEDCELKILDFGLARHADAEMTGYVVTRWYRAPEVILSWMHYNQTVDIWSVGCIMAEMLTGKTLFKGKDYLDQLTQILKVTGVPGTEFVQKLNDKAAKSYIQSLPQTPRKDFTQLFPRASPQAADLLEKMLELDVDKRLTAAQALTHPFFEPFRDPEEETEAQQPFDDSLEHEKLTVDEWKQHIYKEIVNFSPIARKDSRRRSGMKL
The conditions noted are these: Compound concentration 1000.0 nM.

The target of experiment [13] is Cyclin-dependent kinase 15 (Homo sapiens) (UniProt Q96Q40). The conditions noted are these: Compound concentration 1000.0 nM.
Experiment [14] addresses Cyclin-dependent kinase 14 (Homo sapiens) (UniProt O94921). The note with it: Compound concentration 1000.0 nM.
The subject of experiment [15] is Phosphatidylinositol 4,5-bisphosphate 3-kinase catalytic subunit alpha isoform (Homo sapiens), P42336 [Q546K]. The note with it: Compound concentration 1000.0 nM.
Experiment [16] addresses T2, SNF-related serine/threonine-protein kinase (Homo sapiens) (UniProt Q9NRH2).
T2 sequence (whole entry): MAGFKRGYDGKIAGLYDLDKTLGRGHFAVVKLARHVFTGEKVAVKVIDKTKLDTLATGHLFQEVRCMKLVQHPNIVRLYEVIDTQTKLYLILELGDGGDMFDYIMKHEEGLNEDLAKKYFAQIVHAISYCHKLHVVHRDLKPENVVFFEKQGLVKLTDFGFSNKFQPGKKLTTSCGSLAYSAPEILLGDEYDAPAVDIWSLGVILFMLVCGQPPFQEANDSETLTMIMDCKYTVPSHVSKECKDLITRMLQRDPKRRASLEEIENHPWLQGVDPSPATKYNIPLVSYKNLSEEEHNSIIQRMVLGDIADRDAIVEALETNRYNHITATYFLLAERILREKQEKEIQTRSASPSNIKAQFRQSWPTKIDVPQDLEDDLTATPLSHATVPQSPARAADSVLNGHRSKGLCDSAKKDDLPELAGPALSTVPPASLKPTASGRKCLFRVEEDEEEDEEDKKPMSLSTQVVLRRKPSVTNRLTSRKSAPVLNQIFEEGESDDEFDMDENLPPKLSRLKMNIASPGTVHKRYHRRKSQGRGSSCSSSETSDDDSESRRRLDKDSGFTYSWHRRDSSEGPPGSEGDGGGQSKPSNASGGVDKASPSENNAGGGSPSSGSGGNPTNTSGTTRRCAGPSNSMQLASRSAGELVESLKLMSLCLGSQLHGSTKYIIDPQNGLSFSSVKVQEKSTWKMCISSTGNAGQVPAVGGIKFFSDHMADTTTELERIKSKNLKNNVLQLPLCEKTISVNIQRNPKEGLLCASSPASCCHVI
The note with it: Compound concentration 1000.0 nM.

In experiment [17] the target is Serine/threonine-protein kinase 35 (Homo sapiens) (UniProt Q8TDR2). The note with it: Compound concentration 1000.0 nM.
The target in experiment [18] is T3, TGF-beta receptor type-1 (Homo sapiens) (UniProt P36897).
T3 sequence (whole entry): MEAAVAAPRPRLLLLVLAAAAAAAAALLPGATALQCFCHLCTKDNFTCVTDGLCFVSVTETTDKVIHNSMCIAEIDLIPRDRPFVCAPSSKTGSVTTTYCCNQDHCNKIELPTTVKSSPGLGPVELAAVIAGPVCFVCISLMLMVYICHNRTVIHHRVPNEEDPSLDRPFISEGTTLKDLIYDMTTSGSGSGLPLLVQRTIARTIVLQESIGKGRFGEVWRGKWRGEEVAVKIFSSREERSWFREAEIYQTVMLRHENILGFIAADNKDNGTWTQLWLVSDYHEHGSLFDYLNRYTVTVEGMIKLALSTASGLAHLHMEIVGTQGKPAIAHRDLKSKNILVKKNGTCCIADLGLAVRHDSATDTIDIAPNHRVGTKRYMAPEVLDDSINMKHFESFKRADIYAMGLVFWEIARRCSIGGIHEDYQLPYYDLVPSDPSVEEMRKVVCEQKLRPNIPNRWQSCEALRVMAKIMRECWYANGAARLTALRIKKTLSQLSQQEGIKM
The conditions noted are these: Compound concentration 1000.0 nM.

The target in experiment [19] is Angiopoietin-1 receptor (Homo sapiens) (UniProt Q02763). The note with it: Compound concentration 1000.0 nM.
The target of experiment [20] is Serine/threonine-protein kinase tousled-like 2 (Homo sapiens) (UniProt Q86UE8). The note with it: Compound concentration 1000.0 nM.
Experiment [21] concerns the target NT-3 growth factor receptor (Homo sapiens) (UniProt Q16288). The note with it: Compound concentration 1000.0 nM.
Experiment [22] has as its target Sodium-dependent noradrenaline transporter (Homo sapiens) (UniProt P23975). The conditions noted are these: Compound concentration 10.0 uM.
For experiment [23], the target named is Sigma non-opioid intracellular receptor 1 (Homo sapiens) (UniProt Q99720). The conditions noted are these: Compound concentration 10.0 uM.
Sequence of Sigma non-opioid intracellular receptor 1 (Homo sapiens) (Q99720 whole entry): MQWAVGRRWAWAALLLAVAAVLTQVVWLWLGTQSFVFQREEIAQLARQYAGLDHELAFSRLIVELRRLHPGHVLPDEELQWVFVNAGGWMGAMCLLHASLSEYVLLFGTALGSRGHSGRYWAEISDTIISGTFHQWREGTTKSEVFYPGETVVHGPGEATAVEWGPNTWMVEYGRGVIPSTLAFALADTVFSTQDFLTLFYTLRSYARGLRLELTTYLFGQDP

Sequence of Cyclin-dependent kinase 4 (Homo sapiens) (P11802 whole entry, canonical isoform): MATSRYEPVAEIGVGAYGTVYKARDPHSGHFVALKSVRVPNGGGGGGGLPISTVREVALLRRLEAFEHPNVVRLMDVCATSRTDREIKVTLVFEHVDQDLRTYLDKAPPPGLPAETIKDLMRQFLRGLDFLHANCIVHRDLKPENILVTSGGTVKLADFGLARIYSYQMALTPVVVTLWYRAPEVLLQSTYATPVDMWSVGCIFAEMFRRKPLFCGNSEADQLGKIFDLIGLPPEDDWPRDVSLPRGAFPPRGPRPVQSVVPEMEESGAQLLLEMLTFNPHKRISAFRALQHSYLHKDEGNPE
Sequence of Casein kinase I isoform alpha-like (Homo sapiens) (Q8N752 whole entry, canonical isoform): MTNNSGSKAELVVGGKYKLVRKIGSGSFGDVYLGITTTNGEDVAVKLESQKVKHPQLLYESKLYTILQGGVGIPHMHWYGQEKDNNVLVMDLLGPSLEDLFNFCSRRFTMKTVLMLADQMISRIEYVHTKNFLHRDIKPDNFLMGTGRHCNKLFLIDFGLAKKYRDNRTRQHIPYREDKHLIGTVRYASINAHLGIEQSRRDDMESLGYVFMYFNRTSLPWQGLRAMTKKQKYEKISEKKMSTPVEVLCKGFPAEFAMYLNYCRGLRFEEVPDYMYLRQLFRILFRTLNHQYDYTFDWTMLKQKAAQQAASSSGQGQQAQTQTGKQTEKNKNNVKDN
Sequence of NT-3 growth factor receptor (Homo sapiens) (Q16288 32-839 limits assumed): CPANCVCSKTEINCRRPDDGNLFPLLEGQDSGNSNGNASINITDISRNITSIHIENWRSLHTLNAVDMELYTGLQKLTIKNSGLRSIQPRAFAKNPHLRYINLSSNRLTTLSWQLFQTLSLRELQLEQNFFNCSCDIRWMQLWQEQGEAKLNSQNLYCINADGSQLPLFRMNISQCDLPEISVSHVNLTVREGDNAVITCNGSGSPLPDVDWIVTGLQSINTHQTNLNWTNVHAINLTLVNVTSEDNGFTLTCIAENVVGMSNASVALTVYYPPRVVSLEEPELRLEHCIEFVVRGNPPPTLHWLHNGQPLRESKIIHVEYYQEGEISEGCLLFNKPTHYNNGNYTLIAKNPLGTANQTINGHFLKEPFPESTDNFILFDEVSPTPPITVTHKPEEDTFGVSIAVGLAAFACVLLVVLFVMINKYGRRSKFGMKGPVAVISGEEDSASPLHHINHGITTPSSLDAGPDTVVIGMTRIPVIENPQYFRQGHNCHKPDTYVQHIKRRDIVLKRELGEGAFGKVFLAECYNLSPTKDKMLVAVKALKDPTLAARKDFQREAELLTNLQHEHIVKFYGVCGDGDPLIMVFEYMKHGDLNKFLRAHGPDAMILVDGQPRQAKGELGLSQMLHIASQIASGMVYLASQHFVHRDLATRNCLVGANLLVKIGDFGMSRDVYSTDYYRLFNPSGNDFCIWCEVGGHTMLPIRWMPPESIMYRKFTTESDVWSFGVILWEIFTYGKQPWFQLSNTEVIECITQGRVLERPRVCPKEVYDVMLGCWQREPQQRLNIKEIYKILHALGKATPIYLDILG
Sequence of Tyrosine-protein kinase Fgr (Homo sapiens) (P09769 2-529 limits assumed): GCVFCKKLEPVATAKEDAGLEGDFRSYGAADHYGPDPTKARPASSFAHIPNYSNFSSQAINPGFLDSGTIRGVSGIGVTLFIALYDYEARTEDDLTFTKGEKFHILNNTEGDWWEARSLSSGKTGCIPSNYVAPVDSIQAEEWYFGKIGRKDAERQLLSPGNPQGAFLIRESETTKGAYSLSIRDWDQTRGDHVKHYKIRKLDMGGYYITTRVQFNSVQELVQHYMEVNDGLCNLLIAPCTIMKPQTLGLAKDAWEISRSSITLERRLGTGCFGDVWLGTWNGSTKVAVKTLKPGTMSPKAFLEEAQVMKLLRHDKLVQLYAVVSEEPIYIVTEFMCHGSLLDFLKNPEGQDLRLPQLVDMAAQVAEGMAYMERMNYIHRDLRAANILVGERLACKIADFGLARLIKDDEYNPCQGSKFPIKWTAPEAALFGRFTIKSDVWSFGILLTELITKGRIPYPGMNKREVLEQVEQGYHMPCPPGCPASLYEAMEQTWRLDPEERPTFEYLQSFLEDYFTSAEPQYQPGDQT
Sequence of Fibroblast growth factor receptor 3 (Homo sapiens) (P22607 23-806 limits assumed): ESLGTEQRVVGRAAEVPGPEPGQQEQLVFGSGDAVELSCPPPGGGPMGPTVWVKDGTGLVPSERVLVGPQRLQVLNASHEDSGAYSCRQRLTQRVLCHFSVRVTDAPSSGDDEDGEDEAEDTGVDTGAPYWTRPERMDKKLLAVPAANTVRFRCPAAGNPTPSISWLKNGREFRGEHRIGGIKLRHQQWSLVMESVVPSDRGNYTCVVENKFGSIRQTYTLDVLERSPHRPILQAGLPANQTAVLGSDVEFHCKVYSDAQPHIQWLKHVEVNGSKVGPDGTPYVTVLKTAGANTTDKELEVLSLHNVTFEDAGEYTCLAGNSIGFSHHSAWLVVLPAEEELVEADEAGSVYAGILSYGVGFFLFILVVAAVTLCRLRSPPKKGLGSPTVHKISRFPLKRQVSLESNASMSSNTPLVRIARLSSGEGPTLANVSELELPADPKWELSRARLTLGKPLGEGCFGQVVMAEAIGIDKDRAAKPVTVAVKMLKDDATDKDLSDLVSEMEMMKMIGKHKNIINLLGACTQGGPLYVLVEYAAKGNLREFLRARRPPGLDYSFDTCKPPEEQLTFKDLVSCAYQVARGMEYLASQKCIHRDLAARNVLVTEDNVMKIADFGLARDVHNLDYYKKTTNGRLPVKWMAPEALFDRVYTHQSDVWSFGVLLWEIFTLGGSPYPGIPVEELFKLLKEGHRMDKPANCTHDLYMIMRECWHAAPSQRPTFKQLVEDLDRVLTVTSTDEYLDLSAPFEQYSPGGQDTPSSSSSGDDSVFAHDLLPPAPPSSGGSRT
Sequence of Sodium-dependent noradrenaline transporter (Homo sapiens) (P23975 whole entry): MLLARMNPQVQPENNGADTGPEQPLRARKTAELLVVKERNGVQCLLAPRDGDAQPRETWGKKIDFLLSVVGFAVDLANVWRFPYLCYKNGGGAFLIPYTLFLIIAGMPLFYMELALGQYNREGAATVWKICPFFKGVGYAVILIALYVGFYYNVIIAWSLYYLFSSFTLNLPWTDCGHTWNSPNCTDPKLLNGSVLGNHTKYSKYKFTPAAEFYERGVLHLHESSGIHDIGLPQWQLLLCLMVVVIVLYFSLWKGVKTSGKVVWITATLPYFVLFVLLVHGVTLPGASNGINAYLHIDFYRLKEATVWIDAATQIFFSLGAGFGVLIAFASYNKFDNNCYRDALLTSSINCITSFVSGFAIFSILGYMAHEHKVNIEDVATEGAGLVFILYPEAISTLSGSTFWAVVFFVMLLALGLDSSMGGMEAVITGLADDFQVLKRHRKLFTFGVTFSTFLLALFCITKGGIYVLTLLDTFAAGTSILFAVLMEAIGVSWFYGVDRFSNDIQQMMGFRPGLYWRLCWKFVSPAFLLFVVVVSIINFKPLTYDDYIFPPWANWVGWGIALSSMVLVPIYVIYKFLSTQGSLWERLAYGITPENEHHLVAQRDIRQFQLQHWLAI

In general, inhibition refers to the drop in the measured response relative to a control, in per cent. Regarding `CC1=C(C#N)C(c2ccc3c(c2)c(NC(=O)c2ccccc2C)nn3C)C(C#N)=C(C)N1` [BAY-974], the residual activity in experiment [1] was 79%; in [2], 97%; in experiment [3], 79%; in experiment [4], 93%; in experiment [5], 94%; in experiment [6], 92%. Also, the residual activity is 90% in experiment [7]; 76% in experiment [8]; 100% in experiment [9]; 100% in experiment [10]; 100% in [11]; 79% in experiment [12]. Moreover, the residual activity in experiment [13] is 100%; in [14], 100%; in experiment [15], 87%; in experiment [16], 100%; in [17], 86%; in experiment [18], 100%. The figures for the residual activity in experiment [19], in experiment [20] and in experiment [21] were 98%, 100% and 83%, respectively. In addition, the inhibition in experiment [22] is 2.85%; in [23], 37.9%.

Take `CCc1ccccc1C(=O)Nc1n[nH]c2c(C)c(F)c(C3C(C#N)=C(C)N(C)C(C)=C3C#N)cc12` [BAY-3827]: the residual activity in [1] is 75%; in [2], 62%; in experiment [3] it was 87%; in experiment [4], 100%; in experiment [5] it was 93%; in experiment [6], 51%. The residual activity in experiment [7] is 3.2%; in [8], 12%; in experiment [9] it was 13%; in experiment [10] it was 100%; in experiment [11], 100%; in experiment [12], 96%. In addition, the residual activity was 95% in [13]; 83% in experiment [14]; 39% in experiment [15]; 100% in experiment [16]; 100% in experiment [17]; 58% in experiment [18]. Moreover, the residual activity in experiment [19] was 91%; in experiment [20], 100%; in [21], 100%. Also, the inhibition was 2.8% in experiment [22] and 30.5% in experiment [23].
